From patent publication US20150065421A1, “BASAL INSULIN THERAPY” (SANOFI, priority 2012, published 2015) come the findings set out here.

The subject of the series is people at high risk for vascular disease with either IFG, IGT, or early type 2 diabetes. As to the kind of experiment: ORIGIN trial: cardiovascular, mortality and cancer outcomes. In kind it is in vivo, human. An excerpt:
The ORIGIN study was an international, multicenter, randomized, open-label (for insulin glargine versus standard care), double-blind (for omega-3 PUFA versus placebo), 2×2 factorial design study to evaluate whether patients with IGT, IFG, or early T2DM, who were at high risk for macrovascular events, could be safely treated with insulin glargine and omega-3 PUFA, and if either insulin glargine-mediated normoglycemia and/or omega-3 PUFA reduce or prevent CV morbidity and/or mortality. Patients were randomized to either receive insulin glargine treatment as a titrated regimen which targeted fasting plasma glucose (FPG) of 95 mg/dL or standard care according to current guidelines for dysglycemia accompanied by appropriate lifestyle modifications. Patients were also independently randomized to receive either ethyl esters of omega-3 PUFA or matching placebo.
Patients were to be randomly assigned to receive either insulin glargine treatment or standard care for their dysglycemia. Patients randomized to the insulin glargine group received Lantus® (insulin glargine 100 U/mL solution) once daily (QD) by subcutaneous (SC) injection in a titrated regimen targeting an FPG of […] (5.3 mmol/L). Nondiabetic patients randomized to standard care were followed for the development of diabetes, and were encouraged to continue to modify diet and physical activity levels. Blood glucose management of diabetic patients (or nondiabetic patients who developed diabetes during the study) randomized to standard care was to be performed according to current (at that time) guidelines. All patients were to be encouraged to appropriately modify their lifestyle.
ORIGIN was an international randomized factorial trial of the effect of titrated basal insulin therapy versus standard care and of omega 3 fasty acid supplements versus placebo on incident CV outcomes. Results of the omega 3 fatty acid arm are reported separately (REF). […] The HbA1c level of people with prior diabetes had to be low enough to minimize the likelihood that insulin would be needed to maintain glycemic control during follow-up if allocated to standard care. Key exclusion criteria included unwillingess or an inability to inject insulin or do capillary glucose testing, a clear indication for, or intolerance to insulin or omega 3 fatty acids, unwillingness to stop thiazolidinediones if allocated to glargine, heart failure, or coronary artery bypass surgery within the prior 4 years with no intervening CV event. The study was approved by each site's ethics committee and all participants provided written informed consent.
Participants were asked to self-administer daily subcutaneous saline injections and to check their capillary glucose levels during a 10 day run-in period. Adherent participants were then provided with lifestyle advice and randomly allocated to either insulin glargine (Lantus™) or standard approaches to glycaemic control. Participants allocated to insulin glargine who were also taking a thiazolidinedione stopped that medication at the time of randomization; otherwise the insulin glargine was added to their glycemic regimen. These participants were instructed to inject insulin glargine in the evening, starting at 2, 4 or 6 units (depending on their initial FPG) and to increase the dose at least once per week targeting a self-measured FPG level ≦5.3 mmol/l (95 mg/dl) and ≧4 mmol/l (72 mg/dl). […] If participants developed uncontrolled hyperglycemia, investigators were permitted to add rapid-acting insulin. No other glucose-lowering medication could be added or increased. FPG levels were measured in the local laboratory at every visit and the results were regularly reviewed along with the dose of insulin to ensure that insulin was being effectively trirated. People not diagnosed with diabetes by the time of the penultimate study visit down-titrated insulin glargine by 10 units per day and stopped any metformin that was prescribed.
There were 2 co-primary composite CV outcomes. […]

Setting [1] is: glargine group, 6-7 years exposure, p=0.02 vs standard care.
The mark [2] stands for this setting: insulin glargine group, median follow-up 6.2 years.
Setting [3] is: insulin glargine vs standard care.

For “(Gly A21) Arg (B31) Arg (B32) human insulin [insulin glargine]”, under setting [1], the “patients who developed a new angina (number)” value came to 100 patients and the “patients who developed a new angina (percent)” value was determined as 1.6%. Under setting [2], the “incidence of the composite outcome of nonfatal MI, nonfatal stroke or CV death (first co-primary outcome)” value is on record as 2.94 /100 person-years and the “incidence of the second co-primary outcome (first plus revascularization or heart failure hospitalization)” value is given as 5.53 /100 person-years. Besides, under setting [3], the “incidence of any cancer or cancer death, difference to standard care” value is “no difference” and the “mortality, difference to standard care” value is on record as “no statistically significant difference”. Moreover, for the setting “insulin glargine vs standard care, 95% CI 0.88, 1.12, P=0.9”, the “adjusted HR, first co-primary outcome” value came out at 0.99. Moreover, the “adjusted HR, second co-primary outcome” value (insulin glargine vs standard care, 95% CI 0.91, 1.10, P=0.99) is listed as 1.00.
